Results as given in patent publication US9937121B2, “Hydrophilic external gel formulation capable of enhancing skin permeability of tacrolimus” (CHUNG-ANG UNIVERSITY INDUSTRY-ACADEMIC COOPERATION …, priority 2014, dated 2018).

How the values were obtained:
[1] = Solubility of tacrolimus in Transcutol P; assay type: physicochemical; details: room temperature
Excerpt: Since tacrolimus is lipid-soluble and a formulation for delivering a drug is in a hydrophilic gel form, a solubilizer that can dissolve tacrolimus and then disperse tacrolimus well was needed. Also, in order to enhance the skin permeability of tacrolimus, Transcutol P was selected as a substance which can act as an enhancer for skin permeability. […] Carbopol 934P used as a polymeric base absorbs and attracts water well, has an ability to form a film, and thus is widely used as a moisturizer. Carnosine, which is a biocomponent present in human muscle and brain tissue, is known as a substance having excellent antioxidant activity, and appropriately adjusts the pH of a formulation for external application when applied to skin.

[2] = poorly soluble in water and highly permeable; cited from earlier work

- solubility of tacrolimus in Transcutol P [1]: 240 mg/g
SMILES: C=CC[C@@H]1/C=C(\C)C[C@H](C)C[C@H](OC)[C@H]2O[C@@](O)(C(=O)C(=O)N3CCCC[C@H]3C(=O)O[C@H](/C(C)=C/[C@@H]3CC[C@@H](O)[C@H](OC)C3)[C@H](C)[C@@H](O)CC1=O)[C@H](C)C[C@@H]2OC [tacrolimus, Tacrolimus]
- BCS class [2]: class II
